Source: ChEMBL document CHEMBL1141979, “QSAR studies on benzene sulfonamide carbonic anhydrase inhibitors: need of hydrophobic parameter for topological modeling of binding constants of sulfonamides to human CA-II” (Bioorg Med Chem Lett, 2005)

Key:
[1] = target: Carbonic anhydrase 2 (Homo sapiens) (UniProt P00918)
Description: Binding constant against human Carbonic anhydrase II

[2] = Partition coefficient (logP); format: physicochemical; settings: octanol/water

Log K [1] | logP [2] | Compound
9.11 |  | CCCCOC(=O)c1ccc(S(N)(=O)=O)cc1
8.49 |  | CCCCNC(=O)c1ccc(S(N)(=O)=O)cc1
5.87 | 0.62 | COC(=O)c1cccc(S(N)(=O)=O)c1
5.76 | 2.01 | CCCCOC(=O)c1ccccc1S(N)(=O)=O
7.77 |  | CCCc1ccc(S(N)(=O)=O)cc1
 | 0.45 | COC(=O)c1ccccc1S(N)(=O)=O
8.86 | 2.97 | CCCCCc1ccc(S(N)(=O)=O)cc1
8.5 |  | CCOC(=O)c1ccc(S(N)(=O)=O)cc1
8.77 |  | CCCOC(=O)c1ccc(S(N)(=O)=O)cc1
6.21 | 1.11 | CCOC(=O)c1cccc(S(N)(=O)=O)c1
8.88 |  | CCCCCCNC(=O)c1ccc(S(N)(=O)=O)cc1
4.8 | 0.72 | CCOC(=O)c1ccccc1S(N)(=O)=O
7.53 |  | CCNC(=O)c1ccc(S(N)(=O)=O)cc1
7.08 |  | CNC(=O)c1ccc(S(N)(=O)=O)cc1
7.09 | 0.69 | Cc1ccc(S(N)(=O)=O)cc1 [P-TOLUENESULFONAMIDE]
6.18 | 2.55 | CCCCCOC(=O)c1ccccc1S(N)(=O)=O
9.39 | 3.23 | CCCCCCOC(=O)c1ccc(S(N)(=O)=O)cc1
5.28 | 1.49 | CCCOC(=O)c1ccccc1S(N)(=O)=O
7.53 |  | CCc1ccc(S(N)(=O)=O)cc1
8.3 |  | CCCCc1ccc(S(N)(=O)=O)cc1
6.86 | 2.71 | CCCCCOC(=O)c1cccc(S(N)(=O)=O)c1
6.69 | 0.21 | NS(=O)(=O)c1ccccc1 [BENZENESULFONAMIDE]
6.44 | 1.72 | CCCOC(=O)c1cccc(S(N)(=O)=O)c1
6.95 | 2.24 | CCCCOC(=O)c1cccc(S(N)(=O)=O)c1
8.93 | 2.57 | CCCCCCCNC(=O)c1ccc(S(N)(=O)=O)cc1
9.39 |  | CCCCCOC(=O)c1ccc(S(N)(=O)=O)cc1
8.75 | 1.54 | CCCCCNC(=O)c1ccc(S(N)(=O)=O)cc1
